According to PubChem BioAssay (NCI):
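Interpolation was linear, between the two tested concentrations surrounding the appropriate level; five concentrations were tested over 48 hours in 96-well plates. Here, GI50 denotes the concentration required for 50% inhibition of growth. TGI denotes the concentration required for complete inhibition of growth.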

Legend:
Test in all cases: NCI tumour cell line growth inhibition, 48 h
[1] = system: HCC-2998 colon
[2] = system: NCI-H23 lung
[3] = system: EKVX NSCLC
[4] = system: T-47D breast
[5] = system: M14 melanoma
[6] = system: HCT-116 colon
[7] = system: HS 578T breast
[8] = system: NCI-H460 lung
[9] = system: OVCAR-5 ovarian
[10] = system: SF-539 CNS
[11] = system: UACC-257 melanoma
[12] = system: MDA-MB-231 breast
[13] = system: OVCAR-8 ovarian
[14] = system: SNB-75 CNS

Compound | TGI [1] | TGI [2] | TGI [3] | TGI [4] | TGI [5] | TGI [6] | TGI [7] | TGI [8] | TGI [9] | TGI [10] | TGI [11] | TGI [12] | TGI [13] | TGI [14] | GI50 [6] | GI50 [8]
CN(C)c1ccc(/C=c2/c3ccccc3n3c2c2c([n+]3C)CCCC2)cc1 | 0.375 µM | 6.49 µM | 0.353 µM | 0.362 µM | 1.5 µM | 0.913 µM | 7.21 µM | 0.758 µM | 5.86 µM | 1.42 µM | 2.88 µM | 2.79 µM | 2.49 µM | 0.265 µM | – | –
COc1cc(C2c3cc4c(cc3OC(N3CCCCC3)C2C)OCO4)cc(OC)c1O (stereo not drawn) | 32.7 µM | > 66.9 µM | > 83.4 µM | > 60.2 µM | > 69.4 µM | 25.7 µM | 31.8 µM | 23.3 µM | 41.3 µM | 25.5 µM | 41.9 µM | 28.1 µM | 36.7 µM | 13.7 µM | – | –
O=C(Nc1ccccc1)c1cc(S(=O)(=O)NC2=NC(c3ccccc3)c3cc(Cl)ccc3N2)c(SSc2cc(Cl)c(C(=O)Nc3ccccc3)cc2S(=O)(=O)NC2=NC(c3ccccc3)c3cc(Cl)ccc3N2)cc1Cl (stereo not drawn) | > 100 µM | > 100 µM | > 100 µM | > 100 µM | > 100 µM | > 100 µM | > 100 µM | > 100 µM | > 100 µM | > 100 µM | > 100 µM | > 83.6 µM | > 100 µM | > 100 µM | – | –
CC1(C)OC(C(=O)Nc2cc3c4ccccc4ccc3c3ccccc23)C(C(=O)N2CCCCC2)O1 (stereo not drawn) | > 100 µM | > 100 µM | > 100 µM | > 100 µM | > 100 µM | > 100 µM | > 96.6 µM | 27.7 µM | > 100 µM | > 100 µM | > 100 µM | > 100 µM | > 100 µM | > 100 µM | – | –
CC1CC(OP(=O)(OCc2ccccc2)OCc2ccccc2)[C@@H](OCc2ccccc2)C(OCc2ccccc2)C1OCc1ccccc1 (stereo partly drawn) | > 100 µM | > 100 µM | > 100 µM | > 100 µM | > 100 µM | > 100 µM | > 100 µM | > 100 µM | > 100 µM | > 100 µM | > 100 µM | > 100 µM | > 100 µM | > 100 µM | – | –
COC(=O)C1=C(OC(=O)/C(=C/c2ccc(Cl)cc2)c2ccc(Cl)cc2)C(C(=O)OC)[C@@]2(O)[C@@H](C(=O)OC)[C@H](C)C[C@@H]1[C@@H]2C(=O)OC (stereo partly drawn) | > 100 µM | > 100 µM | > 100 µM | > 100 µM | > 100 µM | > 100 µM | > 100 µM | > 100 µM | > 100 µM | > 100 µM | > 100 µM | > 100 µM | > 100 µM | > 100 µM | – | –
COc1cccc(C2c3cc4c(cc3OC(N3CCCCC3)C2C)OCO4)c1O (stereo not drawn) | 25.6 µM | > 71.6 µM | 56.8 µM | 80 µM | 22.6 µM | 19.9 µM | > 26.4 µM | 24.4 µM | 57.7 µM | 5.82 µM | > 56.6 µM | > 56.7 µM | > 36.5 µM | 68.5 µM | – | –
Nc1c(C(=O)O)nnc2ccc(Cl)cc12 | > 100 µM | > 100 µM | > 100 µM | > 100 µM | > 100 µM | > 100 µM | > 100 µM | > 100 µM | > 100 µM | > 100 µM | > 100 µM | > 100 µM | > 100 µM | > 100 µM | – | –
Cc1ccnc2[nH]c(-c3ccc4ccccc4c3)cc(=O)c12 | 19.4 µM | 15.3 µM | 26.8 µM | 34.6 µM | 23.2 µM | 2.31 µM | 5.6 µM | 7.34 µM | 23.5 µM | 6.79 µM | 32.8 µM | 8.58 µM | 14 µM | 4.6 µM | 428 nM | 1050 nM
COC(=O)c1ccc(/C=C/c2cc(O)ccc2O)cc1 | > 59.6 µM | > 38.5 µM | 9.66 µM | 5.32 µM | 43 µM | 18.9 µM | > 100 µM | 25.9 µM | 70.3 µM | 6.65 µM | 22.5 µM | 24 µM | 18.4 µM | 68.5 µM | – | –
CC1=NN(c2nc(N)nc(/C(C#N)=C\c3ccc([N+](=O)[O-])s3)n2)C(C)(C)C1 | 4.4 µM | 3.32 µM | 4.28 µM | 0.264 µM | 0.8 µM | 1.23 µM | > 100 µM | 0.553 µM | 21.5 µM | 0.467 µM | 0.544 µM | 0.465 µM | 0.21 µM | 1.93 µM | – | –
Cc1ccc2c(c1)C(=S)N1CSCC1c1nncn1-2 (stereo not drawn) | > 100 µM | – | > 100 µM | > 100 µM | > 100 µM | > 100 µM | > 100 µM | > 100 µM | > 100 µM | – | > 100 µM | > 100 µM | > 100 µM | > 100 µM | – | –
C=CCc1cccc2cc(C(=O)NCc3ccccc3)c(=N)oc12 | 67.8 µM | > 100 µM | > 100 µM | > 100 µM | > 100 µM | 70.7 µM | 63.8 µM | > 100 µM | > 100 µM | > 100 µM | > 100 µM | > 100 µM | > 100 µM | > 100 µM | – | –
Cc1n(Cc2ccccc2)c2c([n+]1C)C(=O)c1ccccc1C2=O | 1.45 µM | 0.177 µM | 1.01 µM | 1.33 µM | 0.282 µM | 0.512 µM | 2.14 µM | 0.5 µM | 0.503 µM | 0.179 µM | 0.14 µM | 0.299 µM | 0.826 µM | 0.219 µM | – | –
CN1CCc2c([nH]c3ccccc23)C1 | > 100 µM | > 100 µM | > 100 µM | > 100 µM | > 100 µM | > 100 µM | > 100 µM | > 100 µM | > 100 µM | – | > 100 µM | > 100 µM | > 100 µM | > 100 µM | – | –
O=c1oc2ccc3ccccc3c2cc1-c1nc2ccccc2s1 | > 100 µM | > 100 µM | > 100 µM | > 100 µM | > 100 µM | > 100 µM | > 100 µM | > 100 µM | > 100 µM | > 100 µM | > 100 µM | > 100 µM | > 100 µM | > 100 µM | – | –
